Assay results reported in publication PMC9502539, “1,2,3-Triazole-Benzofused Molecular Conjugates as Potential Antiviral Agents against SARS-CoV-2 Virus Variants” (Life, 2022).
In brackets after ≈: the same amount, converted by molar mass.

Tests used:
[1] = molecular target: T1, SARS-CoV-2 spike protein (Severe acute respiratory syndrome coronavirus 2, UniProt P0DTC2); assay: biochemical; assay type: binding; details: read-out: remaining activity % of SARS-CoV-2 spike proteins; for remaining activity at 0.1 µM: tested concentration 100 nM; for remaining activity at 0.2 µM: tested concentration 200 nM; for remaining activity at 0.5 µM: tested concentration 500 nM; for remaining activity at 0.75 µM: tested concentration 750 nM; for remaining activity at 1 µM: tested concentration 1000 nM
T1 construct: purchased Biosource, Muskego, WI, USA

[2] = system: SARS-CoV-2; assay: microbe, parasite or virus in culture; assay type: cell-based; details: for EC50: Severe acute respiratory syndrome coronavirus 2, Vero C1008
[3] = in vitro; details: African green monkey
[4] = system: IL-6; assay: Proinflammatory cytokine production (ELISA) in infected cells; assay type: cell-based; details: infected cells treated with compound vs infected untreated
[5] = system: IL-1β; assay: as above; assay type: cell-based; details: infected cells treated with compound vs infected untreated
[6] = system: SARS-CoV-2; details: cited from earlier work

Row | SMILES | remaining activity at 0.1 µM [1] | remaining activity at 0.2 µM [1] | remaining activity at 0.5 µM [1] | remaining activity at 0.75 µM [1] | remaining activity at 1 µM [1] | Selectivity Index (SI) [2] | EC50 [2] | CC50 [3] | IL-6 protein expression level [4] | IL-1β protein expression level [5] | antiviral activity against SARS-CoV-2 [6]
1 | S=c1[nH]nc(Cn2cc(CSc3nc4ccccc4n3Cc3cn(Cc4n[nH]c(=S)n4-c4ccccc4)nn3)nn2)n1-c1ccccc1 [compound 6] | 79.9% | 65.4% | 38.2% | 27% | 20% | 6.87 | 155 µg/mL (≈ 224 µM) | 1070 µg/mL (≈ 1540 µM) |  |  | 
2 | Cc1onc(NS(=O)(=O)c2ccc(-n3cc(CSc4nc5ccccc5n4Cc4cn(-c5ccc(S(=O)(=O)Nc6noc(C)c6C)cc5)nn4)nn3)cc2)c1C [compound 9] | 67.1% | 32.7% | 11.4% | 12% | 5% |  | 80.4 µg/mL (≈ 98.9 µM) | 1030 µg/mL (≈ 1260 µM) | noticeably reduced | noticeably reduced | 
3 | Nn1c(Cn2cc(CSc3nc4ccccc4n3Cc3cn(Cc4n[nH]c(=S)n4N)nn3)nn2)n[nH]c1=S [compound 7] | 86.1% | 77.2% | 58.6% | 44% | 40% | 5.0 | 306 µg/mL (≈ 538 µM) | 1530 µg/mL (≈ 2690 µM) |  |  | 
4 | O=C(Cn1cc(CSc2nc3ccccc3n2Cc2cn(CC(=O)NNC(=S)Nc3ccccc3)nn2)nn1)NNC(=S)Nc1ccccc1 [compound 4] | 74.6% | 46% | 21.9% | 20% | 18% | 10.90 | 174 µg/mL (≈ 240 µM) | 1900 µg/mL (≈ 2610 µM) |  |  | 
5 | O=C(Cn1cc(CSc2nc3ccccc3n2Cc2cn(CC(=O)NNC(=S)Nc3ccc(F)cc3)nn2)nn1)NNC(=S)Nc1ccc(F)cc1 [compound 5] | 83.8% | 70.2% | 45.8% | 32% | 26% | 8.82 | 231 µg/mL (≈ 303 µM) | 2040 µg/mL (≈ 2670 µM) |  |  | 
6 | COc1ccc(-n2cc(CCOc3cc(C(F)(F)F)nc4ccc(F)cc34)nn2)cc1 [12c, 6-fluoro-4-(2-(1-(4-methoxyphenyl)-1H-1,2,3-triazol-4-yl)ethoxy)-2-(trifluoromethyl)quinoline] |  |  |  |  |  |  |  |  |  |  | high antiviral activity
7 | CC(C)(O/N=C(\C(=O)N[C@@H]1C(=O)N2C(C(=O)[O-])=C(C[n+]3ccccc3)CS[C@H]12)c1csc(N)n1)C(=O)O [Ceftazidime, ceftazidime, reference compound] | 99% | 79% | 59% | 55.1% | 45.2% | 12.29 | 85.1 µg/mL (≈ 156 µM) | 1050 µg/mL (≈ 1910 µM) |  |  | 
8 | Cc1ccc2nc(NC(=O)Cn3cc(CN4C(=O)C(=O)c5ccccc54)nn3)sc2c1 [compound 12] | 95.9% | 92.5% | 82% | 82% | 70% | 0.87 | 382 µg/mL (≈ 882 µM) | 332 µg/mL (≈ 767 µM) |  |  | 
9 | Fc1ccc2nc(C(F)(F)F)cc(OCc3cn(-c4ccccc4Cl)nn3)c2c1 [10 g, 4-((1-(2-chlorophenyl)-1H-1,2,3-triazol-4-yl)methoxy)-6-fluoro-2-(trifluoromethyl)quinoline] |  |  |  |  |  |  |  |  |  |  | high antiviral activity
